The series is described as follows: Metabolic stability in human liver microsomes assessed as parent compound remaining at 1 uM preincubated for 5 mins followed by NADPH regeneration system addition and measured after 30 mins by LC-MS analysis. The format is ADME, Microsome. The settings on record: time 35 min, read-out: Stabilty.

The record followed here is ChEMBL document CHEMBL4825758, “Discovery of G Protein-Biased Antagonists against 5-HT7R” (J Med Chem, 2021).

Consider `Clc1cccc(-c2n[nH]cc2N2CCCNCC2)c1`, for which the remaining at 0.5 h, 1 µM turned out to be 27.5%.
